Patent US20120178758A1, “STYRYL-TRIAZINE DERIVATIVES AND THEIR THERAPEUTICAL APPLICATIONS” (CALIFORNIA CAPITAL EQUITY, LLC, priority 2009, published 2012)

Legend:
Type in all cases: biochemical
c-Src kinase = molecular target: T1, c-Src kinase (Homo sapiens, UniProt P12931); assay: c-Src kinase assay (KinaseProfiler / Kinase Hotspot); conditions: compound at 1 μM; read-out: % Inhibition @1 μM cSrc
T1 construct: purchased Millipore (KinaseProfiler Service) / Reaction Biology Corp. (Kinase Hotspot)
T1 sequence (P12931 whole entry): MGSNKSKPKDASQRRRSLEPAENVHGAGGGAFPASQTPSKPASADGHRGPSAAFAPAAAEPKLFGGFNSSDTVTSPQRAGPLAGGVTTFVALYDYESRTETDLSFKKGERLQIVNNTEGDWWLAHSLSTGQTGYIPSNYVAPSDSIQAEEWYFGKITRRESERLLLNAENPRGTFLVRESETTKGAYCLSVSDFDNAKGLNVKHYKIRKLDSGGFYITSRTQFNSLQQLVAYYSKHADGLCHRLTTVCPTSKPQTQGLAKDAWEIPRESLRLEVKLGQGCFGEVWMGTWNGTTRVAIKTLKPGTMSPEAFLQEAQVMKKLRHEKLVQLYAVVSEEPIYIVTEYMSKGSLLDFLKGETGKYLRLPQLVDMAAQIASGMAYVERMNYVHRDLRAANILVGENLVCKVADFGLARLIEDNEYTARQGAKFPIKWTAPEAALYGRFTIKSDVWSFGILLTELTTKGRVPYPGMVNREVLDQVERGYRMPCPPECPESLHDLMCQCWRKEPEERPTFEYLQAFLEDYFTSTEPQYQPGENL
Method: (§1) This example illustrated c-Src kinase, Aurora-A kinase, Flt3 kinase, Ret kinase and TrkA Kinase Assays of selected Compounds from this invention (referred to Daniele Fancelli et al, J. Med. Chem., 2006, 49 (24), pp 7247-7251). The KinaseProfiler™ Service Assay Protocols (Millipore) were used to test the kinase inhibiting activity of novel compounds from this invention. To do this, the buffer composition was as: 20 mM MOPS, 1 mM EDTA, 0.01% Brij-35, 5% Glycerol, 0.1% […], 1 mg/mL BSA. Test compounds were initially dissolved in DMSO at the desired concentration, then serially diluted to the kinase assay buffer. In a final reaction volume of 25 μL, Aurora-A(h) (5-10 mU) is incubated with 8 mM MOPS pH 7.0, 0.2 mM EDTA, 200 μM LRRASLG (Kemptide), 10 mM MgAcetate and [γ^33P-ATP]. The reaction was initiated by the addition of the MgATP mix. After incubation for 40 minute at room temperature, the reaction was stopped by addition of 5 μL of a 3% phosphoric acid solution. 10 μL of the reaction was then spotted onto a P30 filtermat and washed three times for 5 minutes in 50 mM phosphoric acid and once in methanol prior to drying and scintillation counting. Wells containing substrate but no kinase and wells containing a phosphopeptide control were used to set 0% and 100% phosphorylation value, repectively.
(§2) Also Kinase Hotspot™ kinase assay was used to test the compounds for IC50 or % inhibitions (Reaction Biology Corp.). Inhibitor IC50 values were determined by titration of compound at the optimal kinase concentration (Kinase EC50).

TrkA Kinase = molecular target: T2, TrkA Kinase (Homo sapiens, UniProt P04629); assay: TrkA kinase assay (KinaseProfiler / Kinase Hotspot); conditions: compound at 1 μM
T2 construct: purchased Millipore (KinaseProfiler Service) / Reaction Biology Corp. (Kinase Hotspot)
T2 sequence (P04629 33-796): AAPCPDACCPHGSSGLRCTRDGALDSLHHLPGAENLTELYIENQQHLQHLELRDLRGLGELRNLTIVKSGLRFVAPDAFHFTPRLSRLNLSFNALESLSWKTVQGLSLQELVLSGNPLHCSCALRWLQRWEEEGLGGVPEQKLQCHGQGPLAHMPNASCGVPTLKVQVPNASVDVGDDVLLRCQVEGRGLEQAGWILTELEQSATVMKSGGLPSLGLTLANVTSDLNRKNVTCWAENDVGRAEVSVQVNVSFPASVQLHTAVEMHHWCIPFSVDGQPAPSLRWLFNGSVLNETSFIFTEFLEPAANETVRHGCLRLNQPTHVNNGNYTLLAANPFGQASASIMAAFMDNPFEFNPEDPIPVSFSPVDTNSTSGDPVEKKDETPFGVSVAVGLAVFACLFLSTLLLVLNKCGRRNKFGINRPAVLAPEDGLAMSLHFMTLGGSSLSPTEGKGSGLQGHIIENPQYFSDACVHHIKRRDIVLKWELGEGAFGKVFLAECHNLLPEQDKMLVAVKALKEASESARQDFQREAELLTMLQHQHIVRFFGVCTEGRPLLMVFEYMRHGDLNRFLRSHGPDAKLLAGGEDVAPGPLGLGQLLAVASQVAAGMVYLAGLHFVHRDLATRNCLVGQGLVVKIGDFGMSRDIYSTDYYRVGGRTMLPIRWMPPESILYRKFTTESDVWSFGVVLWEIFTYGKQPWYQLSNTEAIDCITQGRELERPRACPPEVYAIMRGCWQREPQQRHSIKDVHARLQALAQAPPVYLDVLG
Method: as §1, §2

Flt3 kinase = molecular target: T3, Flt3 kinase (Homo sapiens, UniProt P36888); assay: Flt3 kinase assay (KinaseProfiler / Kinase Hotspot); conditions: compound at 1 μM
T3 construct: purchased Millipore (KinaseProfiler Service) / Reaction Biology Corp. (Kinase Hotspot)
T3 sequence (P36888 27-993): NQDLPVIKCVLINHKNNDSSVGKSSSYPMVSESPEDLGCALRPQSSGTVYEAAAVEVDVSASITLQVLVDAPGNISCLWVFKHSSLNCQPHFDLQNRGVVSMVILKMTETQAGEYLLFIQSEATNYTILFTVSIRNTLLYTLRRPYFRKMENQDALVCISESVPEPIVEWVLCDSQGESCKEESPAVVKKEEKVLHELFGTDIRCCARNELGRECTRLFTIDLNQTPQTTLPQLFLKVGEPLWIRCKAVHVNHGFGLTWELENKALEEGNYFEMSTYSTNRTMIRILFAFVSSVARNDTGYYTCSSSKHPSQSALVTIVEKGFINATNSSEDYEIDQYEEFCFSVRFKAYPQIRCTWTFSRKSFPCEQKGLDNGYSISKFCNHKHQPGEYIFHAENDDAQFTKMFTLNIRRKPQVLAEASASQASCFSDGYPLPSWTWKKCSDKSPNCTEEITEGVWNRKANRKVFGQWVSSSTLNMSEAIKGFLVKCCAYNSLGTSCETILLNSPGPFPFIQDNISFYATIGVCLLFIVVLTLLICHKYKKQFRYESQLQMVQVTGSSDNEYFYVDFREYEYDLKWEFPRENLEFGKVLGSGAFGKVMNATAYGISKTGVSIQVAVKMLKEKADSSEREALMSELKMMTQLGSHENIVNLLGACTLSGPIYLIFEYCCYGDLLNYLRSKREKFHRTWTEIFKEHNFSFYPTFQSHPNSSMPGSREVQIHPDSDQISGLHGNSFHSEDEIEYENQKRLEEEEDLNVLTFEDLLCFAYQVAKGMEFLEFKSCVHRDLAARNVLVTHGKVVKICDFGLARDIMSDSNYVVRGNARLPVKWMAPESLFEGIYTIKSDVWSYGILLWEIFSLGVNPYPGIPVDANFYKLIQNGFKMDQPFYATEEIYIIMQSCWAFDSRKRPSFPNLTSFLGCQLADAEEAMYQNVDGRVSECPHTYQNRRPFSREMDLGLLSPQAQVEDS
Method: as §1, §2

Aurora-A(h) = molecular target: T4, Aurora-A(h) (Homo sapiens, UniProt O14965); assay: Aurora-A kinase assay (KinaseProfiler / Kinase Hotspot); conditions: compound at 1 μM; read-out: % Inhibition @1 μM Auroro-A
T4 construct: purchased Millipore (KinaseProfiler Service) / Reaction Biology Corp. (Kinase Hotspot)
T4 sequence (O14965 1-403): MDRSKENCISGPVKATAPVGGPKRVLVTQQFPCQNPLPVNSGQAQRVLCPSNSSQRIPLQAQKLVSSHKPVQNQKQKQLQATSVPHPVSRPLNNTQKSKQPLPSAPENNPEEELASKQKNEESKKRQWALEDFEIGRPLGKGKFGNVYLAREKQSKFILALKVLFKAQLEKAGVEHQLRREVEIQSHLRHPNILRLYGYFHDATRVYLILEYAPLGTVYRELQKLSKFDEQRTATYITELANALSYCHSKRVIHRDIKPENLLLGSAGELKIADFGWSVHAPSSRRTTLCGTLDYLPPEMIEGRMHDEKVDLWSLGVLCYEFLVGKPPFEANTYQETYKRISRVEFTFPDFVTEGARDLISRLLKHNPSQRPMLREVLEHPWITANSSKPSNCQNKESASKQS
Method: as §1, §2

Ret kinase = molecular target: T5, Ret kinase (Homo sapiens, UniProt P07949); assay: Ret kinase assay (KinaseProfiler / Kinase Hotspot); conditions: compound at 1 μM
T5 construct: purchased Millipore (KinaseProfiler Service) / Reaction Biology Corp. (Kinase Hotspot)
T5 sequence (P07949 29-1114): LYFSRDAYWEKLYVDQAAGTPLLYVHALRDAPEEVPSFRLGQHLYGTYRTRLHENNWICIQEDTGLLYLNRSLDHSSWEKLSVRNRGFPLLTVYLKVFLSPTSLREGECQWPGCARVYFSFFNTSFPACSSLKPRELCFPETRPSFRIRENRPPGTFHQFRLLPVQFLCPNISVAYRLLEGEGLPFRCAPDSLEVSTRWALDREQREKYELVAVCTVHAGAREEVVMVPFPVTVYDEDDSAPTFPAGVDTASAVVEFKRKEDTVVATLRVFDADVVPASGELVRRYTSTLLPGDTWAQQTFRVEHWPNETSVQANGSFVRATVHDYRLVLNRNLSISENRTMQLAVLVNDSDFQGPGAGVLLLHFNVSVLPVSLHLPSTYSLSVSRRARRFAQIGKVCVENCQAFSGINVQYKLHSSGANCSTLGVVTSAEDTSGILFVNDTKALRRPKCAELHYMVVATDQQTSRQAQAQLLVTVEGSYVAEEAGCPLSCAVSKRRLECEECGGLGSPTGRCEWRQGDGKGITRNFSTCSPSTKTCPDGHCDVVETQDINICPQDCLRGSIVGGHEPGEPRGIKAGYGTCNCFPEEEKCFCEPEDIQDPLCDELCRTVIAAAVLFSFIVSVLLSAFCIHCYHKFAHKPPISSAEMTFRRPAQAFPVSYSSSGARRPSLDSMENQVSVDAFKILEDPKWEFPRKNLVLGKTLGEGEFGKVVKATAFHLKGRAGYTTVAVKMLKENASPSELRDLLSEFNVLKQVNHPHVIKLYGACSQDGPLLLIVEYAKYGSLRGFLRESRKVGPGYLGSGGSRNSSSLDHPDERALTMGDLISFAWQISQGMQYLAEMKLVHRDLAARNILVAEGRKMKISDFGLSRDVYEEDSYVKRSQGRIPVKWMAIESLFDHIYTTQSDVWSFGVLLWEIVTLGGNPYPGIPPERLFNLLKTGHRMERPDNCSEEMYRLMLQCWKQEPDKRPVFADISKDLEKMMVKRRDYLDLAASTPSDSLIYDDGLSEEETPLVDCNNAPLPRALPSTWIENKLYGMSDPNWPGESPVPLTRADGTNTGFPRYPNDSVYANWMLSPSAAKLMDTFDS
Method: as §1, §2

Structure (SMILES)	inhibition at 1 µM (c-Src kinase)	inhibition at 1 µM (TrkA Kinase)	inhibition at 1 µM (Flt3 kinase)	inhibition at 1 µM (Aurora-A(h))	inhibition at 1 µM (Ret kinase)
Cc1cc(Nc2nc(C#Cc3ccccc3)nc(N3CCN(C)CC3)n2)n[nH]1 [Example 3]	< 50%	> 90%	50 to 90%	50 to 90%	50 to 90%
Cc1cc(Nc2nc(/C=C\c3ccccc3)nc(N3CCN(C)CC3)n2)n[nH]1 [Example 4]	< 50%	50 to 90%	50 to 90%	50 to 90%	< 50%
Cc1cc(Nc2nc(/C=C/c3ccccc3)nc(N3CCN(C)CC3)n2)n[nH]1 [Example 7]	50 to 90%	> 90%	> 90%	> 90%	50 to 90%
Cc1cc(Nc2nc(/C=C/c3ccc(Cl)cc3)nc(N3CCN(C)CC3)n2)n[nH]1 [Example 8]	50 to 90%	> 90%	> 90%	50 to 90%	50 to 90%
Cc1ccc(/C=C/c2nc(Nc3cc(C)[nH]n3)nc(N3CCN(C)CC3)n2)cc1 [Example 9]	< 50%	> 90%	50 to 90%	50 to 90%	50 to 90%
Cc1cc(Nc2nc(/C=C/c3ccccc3Cl)nc(N3CCN(C)CC3)n2)n[nH]1 [Example 10]	50 to 90%	> 90%	> 90%	50 to 90%	< 50%
Cc1cc(Nc2nc(/C=C/c3cccc(Cl)c3)nc(N3CCN(C)CC3)n2)n[nH]1 [Example 11]	50 to 90%	> 90%	> 90%	50 to 90%	< 50%
Cc1cc(Nc2nc(/C=C/c3nccs3)nc(N3CCN(C)CC3)n2)n[nH]1 [Example 12]	50 to 90%	50 to 90%	> 90%	50 to 90%	< 50%
Cc1cnc(Nc2nc(/C=C/c3ccccc3)nc(N3CCN(C)CC3)n2)s1 [Example 17]	50 to 90%	> 90%	> 90%	50 to 90%	< 50%
CN1CCN(c2nc(/C=C/c3ccccc3)nc(Nc3cc(-c4ccccc4)[nH]n3)n2)CC1 [Example 18]	50 to 90%	> 90%	> 90%	50 to 90%	50 to 90%
C/C=C/c1cc(Nc2nc(/C=C/c3ccccc3)nc(N3CCN(C)CC3)n2)n[nH]1 [Example 19]	> 90%	> 90%	50 to 90%	50 to 90%	50 to 90%
